# Starred links: 1 amine or outer side, 2 acyl side, 3 side chain; linkers in the order of their positions; H or OH if unused. Positions of bridges follow the written chain, without caps; N, C: chain ends. Non-standard residues stand in square brackets, D forms with d. Residues, ends and D or L forms follow the SMILES beside them. *: point of attachment. Bip(4'-(3-HOOC-benzamido)) = N[C@@H](Cc1ccc(-c2ccc(NC(=O)c3cccc(C(=O)O)c3)cc2)cc1)C(=O)O; X10 = Cn1cc(C(=O)Nc2ccc(-c3ccc(C[C@H](N[*:1])C(=O)[*:2])cc3)cc2)c2ccccc21; X74 = Cn1nc(C(=O)Nc2ccc(-c3ccc(C[C@H](N[*:1])C(=O)[*:2])cc3)cc2)c2cccnc21; X78 = O=C(Nc1ccc(-c2ccc(C[C@H](N[*:1])C(=O)[*:2])cc2)cc1)c1n[nH]c2ccccc12; X9 = Cn1nc(C(=O)Nc2cccc(-c3ccc(C[C@H](N[*:1])C(=O)[*:2])cc3)c2)c2cccnc21; X17 = O=C(Nc1cccc(-c2ccc(C[C@H](N[*:1])C(=O)[*:2])cc2)c1)c1coc2ccccc12; X47 = O=C(Nc1ccc(-c2ccc(C[C@H](N[*:1])C(=O)[*:2])cc2)cc1)c1coc2ccccc12; Bip(4'-NHBz) = N[C@@H](Cc1ccc(-c2ccc(NC(=O)c3ccccc3)cc2)cc1)C(=O)O; Bip(4'-NH) = O=C([C@H](Cc1ccc(-c2ccc(N[*:3])cc2)cc1)N[*:1])[*:2]; Bip(4'-CONHMe) = CNC(=O)c1ccc(-c2ccc(C[C@H](N)C(=O)O)cc2)cc1; Indazole3carbonyl(1-CH2COOH) = O=C(O)Cn1nc(C(=O)*)c2ccccc21; Bip(4'-COOH) = N[C@@H](Cc1ccc(-c2ccc(C(=O)O)cc2)cc1)C(=O)O; Bip(4'-NHAc) = CC(=O)Nc1ccc(-c2ccc(C[C@H](N)C(=O)O)cc2)cc1; Ala(morpholin-4-yl) = N[C@@H](CN1CCOCC1)C(=O)O; Benzoyl(3-OCH2COOH) = O=C(O)COc1cccc(C(=O)*)c1; Phe(3-CONH2) = NC(=O)c1cccc(C[C@H](N)C(=O)O)c1; Benzoyl(3-Ph) = O=C(c1cccc(-c2ccccc2)c1)*; Bip = N[C@@H](Cc1ccc(-c2ccccc2)cc1)C(=O)O; X3 = O=C(O)c1cccc(Oc2ccccc2C(=O)*)c1; X48 = CC(C)(O)Cn1nc(C(=O)*)c2ccccc21; 2Pal = N[C@@H](Cc1ccccn1)C(=O)O; Cha = N[C@@H](CC1CCCCC1)C(=O)O; X20 = O=C(c1csc(-c2ccncc2)n1)*; Tle = CC(C)(C)[C@H](N)C(=O)O; Sar = CNCC(=O)O
# Target: TNFα (Homo sapiens, UniProt P01375)
# Assay: TNF-Induced HEK-Blue Assay
# Assay type: cell-based
# Conditions: not given
# Chain of TNFα (P01375 77-233 limits assumed): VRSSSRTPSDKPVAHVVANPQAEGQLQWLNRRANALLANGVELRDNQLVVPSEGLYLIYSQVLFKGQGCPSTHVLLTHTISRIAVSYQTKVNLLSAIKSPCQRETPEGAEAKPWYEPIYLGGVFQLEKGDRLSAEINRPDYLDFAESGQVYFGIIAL
row,SMILES,IC50 [nM]
1,CC[C@H](C)[C@@H]1NC(=O)[C@@H]2CCCN2C(=O)[C@H]([C@@H](C)CC)NC(=O)[C@@H](CCCNC(=N)N)NC(=O)[C@H](CC(=O)O)NC(=O)[C@H](Cc2ccccc2)NC(=O)CN(C)C(=O)[C@H](Cc2ccc(-c3ccc(NC(=O)c4ccccc4)cc3)cc2)NC(=O)[C@H](Cc2ccc(-c3ccc(C(=O)O)cc3)cc2)NC(=O)[C@H](C(C)(C)C)NC(=O)CSC[C@@H](C(=O)NCC(N)=O)NC(=O)[C@H](CC(C)C)NC(=O)[C@H](Cc2cnc[nH]2)NC1=O [Example 350] ({CH2CO}-[Tle][Bip(4'-COOH)][Bip(4'-NHBz)][Sar]FD[dR]IPIHLCG-NH2; thioether N-13),< 50
2,CC(C)C[C@@H]1NC(=O)[C@H](CCCNC(=N)N)NC(=O)[C@H](C(C)C)NC(=O)[C@@H]2CCCN2C(=O)[C@H](C(C)C)NC(=O)[C@@H](CCCNC(=N)N)NC(=O)[C@H](CC(=O)O)NC(=O)[C@@H]2CCCN2C(=O)CN(C)C(=O)[C@H](Cc2ccc(-c3ccc(NC(=O)c4nn(CC(C)(C)O)c5ccccc45)cc3)cc2)NC(=O)[C@H](Cc2ccc(-c3ccccc3)cc2)NC(=O)[C@H](CN2CCOCC2)NC(=O)CSC[C@@H](C(=O)NCC(N)=O)NC1=O [Example 355] ({CH2CO}-[Ala(morpholin-4-yl)][Bip][Bip(4'-NH)](X48)[Sar]PD[dR]VPVRLCG-NH2; thioether N-13),< 50
3,CC[C@H](C)[C@@H]1NC(=O)[C@@H]2CCCN2C(=O)[C@H]([C@@H](C)CC)NC(=O)[C@@H](CCCNC(=N)N)NC(=O)[C@H](CC(=O)O)NC(=O)[C@H](Cc2ccccn2)NC(=O)CN(C)C(=O)[C@H](Cc2ccc(-c3ccc(NC(=O)c4nn(CC(=O)O)c5ccccc45)cc3)cc2)NC(=O)[C@H](Cc2ccc(-c3ccccc3)cc2)NC(=O)[C@H](C(C)(C)C)NC(=O)CSC[C@@H](C(=O)NCC(N)=O)NC(=O)[C@H](CC(C)C)NC(=O)[C@H](Cc2cccc(C(N)=O)c2)NC1=O [Example 356] ({CH2CO}-[Tle][Bip][Bip(4'-NH)](Indazole3carbonyl(1-CH2COOH))[Sar][2Pal]D[dR]IPI[Phe(3-CONH2)]LCG-NH2; thioether N-13),< 50

# Same assay, conditions: HEK-Blue-CD40L cells, NF-kB-driven secreted alkaline phosphatase reporter; TNFα 0.5 ng/ml; 18 h; read-out: TNF induced HEK-Blue assay IC50 value
row,SMILES,IC50 [nM]
1,CC[C@H](C)[C@@H]1NC(=O)[C@@H](CCCNC(=N)N)NC(=O)[C@H](CC(=O)O)NC(=O)[C@H](Cc2cnc[nH]2)NC(=O)CN(C)C(=O)[C@H](Cc2ccc(-c3ccc(NC(C)=O)cc3)cc2)NC(=O)[C@H](Cc2ccc(-c3ccc(C(=O)NC)cc3)cc2)NC(=O)[C@H](CC2CCCCC2)NC(=O)CSC[C@@H](C(=O)NCC(N)=O)NC(=O)[C@H](CC(C)C)NC(=O)[C@H](Cc2cnc[nH]2)NC(=O)[C@H](C(C)C)NC(=O)[C@@H]2CCCN2C1=O [Example 342] ({CH2CO}-[Cha][Bip(4'-CONHMe)][Bip(4'-NHAc)][Sar]HD[dR]IPVHLCG-NH2; thioether N-13),< 50
2,CC(C)C[C@@H]1NC(=O)[C@H](CCCNC(=N)N)NC(=O)[C@H](C(C)C)NC(=O)[C@@H]2CCCN2C(=O)[C@H](C(C)C)NC(=O)[C@@H](CCCNC(=N)N)NC(=O)[C@H](CC(=O)O)NC(=O)[C@@H]2CCCN2C(=O)CN(C)C(=O)[C@H](Cc2ccc(-c3ccc(NC(=O)c4n[nH]c5ccccc45)cc3)cc2)NC(=O)[C@H](Cc2ccc(-c3ccccc3)cc2)NC(=O)[C@H](CN2CCOCC2)NC(=O)CSC[C@@H](C(=O)NCC(N)=O)NC1=O [Example 343] ({CH2CO}-[Ala(morpholin-4-yl)][Bip][X78][Sar]PD[dR]VPVRLCG-NH2; thioether N-13),< 50
3,CC(C)C[C@@H]1NC(=O)[C@H](CCCNC(=N)N)NC(=O)[C@H](C(C)C)NC(=O)[C@@H]2CCCN2C(=O)[C@H](C(C)C)NC(=O)[C@@H](CCCNC(=N)N)NC(=O)[C@H](CC(=O)O)NC(=O)[C@@H]2CCCN2C(=O)CN(C)C(=O)[C@H](Cc2ccc(-c3cccc(NC(=O)c4coc5ccccc45)c3)cc2)NC(=O)[C@H](Cc2ccc(-c3ccccc3)cc2)NC(=O)[C@H](CN2CCOCC2)NC(=O)CSC[C@@H](C(=O)NCC(N)=O)NC1=O [Example 344] ({CH2CO}-[Ala(morpholin-4-yl)][Bip][X17][Sar]PD[dR]VPVRLCG-NH2; thioether N-13),< 50
4,CC(C)C[C@@H]1NC(=O)[C@H](CCCNC(=N)N)NC(=O)[C@H](C(C)C)NC(=O)[C@@H]2CCCN2C(=O)[C@H](C(C)C)NC(=O)[C@@H](CCCNC(=N)N)NC(=O)[C@H](CC(=O)O)NC(=O)[C@@H]2CCCN2C(=O)CN(C)C(=O)[C@H](Cc2ccc(-c3cccc(NC(=O)c4nn(C)c5ncccc45)c3)cc2)NC(=O)[C@H](Cc2ccc(-c3ccccc3)cc2)NC(=O)[C@H](CN2CCOCC2)NC(=O)CSC[C@@H](C(=O)NCC(N)=O)NC1=O [Example 345] ({CH2CO}-[Ala(morpholin-4-yl)][Bip][X9][Sar]PD[dR]VPVRLCG-NH2; thioether N-13),< 50
5,CC(C)C[C@@H]1NC(=O)[C@H](CCCNC(=N)N)NC(=O)[C@H](C(C)C)NC(=O)[C@@H]2CCCN2C(=O)[C@H](C(C)C)NC(=O)[C@@H](CCCNC(=N)N)NC(=O)[C@H](CC(=O)O)NC(=O)[C@@H]2CCCN2C(=O)CN(C)C(=O)[C@H](Cc2ccc(-c3ccc(NC(=O)c4coc5ccccc45)cc3)cc2)NC(=O)[C@H](Cc2ccc(-c3ccccc3)cc2)NC(=O)[C@H](CN2CCOCC2)NC(=O)CSC[C@@H](C(=O)NCC(N)=O)NC1=O [Example 346] ({CH2CO}-[Ala(morpholin-4-yl)][Bip][X47][Sar]PD[dR]VPVRLCG-NH2; thioether N-13),< 50
6,CC(C)C[C@@H]1NC(=O)[C@H](CCCNC(=N)N)NC(=O)[C@H](C(C)C)NC(=O)[C@@H]2CCCN2C(=O)[C@H](C(C)C)NC(=O)[C@@H](CCCNC(=N)N)NC(=O)[C@H](CC(=O)O)NC(=O)[C@@H]2CCCN2C(=O)CN(C)C(=O)[C@H](Cc2ccc(-c3ccc(NC(=O)c4nn(C)c5ncccc45)cc3)cc2)NC(=O)[C@H](Cc2ccc(-c3ccccc3)cc2)NC(=O)[C@H](CN2CCOCC2)NC(=O)CSC[C@@H](C(=O)NCC(N)=O)NC1=O [Example 347] ({CH2CO}-[Ala(morpholin-4-yl)][Bip][X74][Sar]PD[dR]VPVRLCG-NH2; thioether N-13),< 50
7,CC(C)C[C@@H]1NC(=O)[C@H](CCCNC(=N)N)NC(=O)[C@H](C(C)C)NC(=O)[C@@H]2CCCN2C(=O)[C@H](C(C)C)NC(=O)[C@@H](CCCNC(=N)N)NC(=O)[C@H](CC(=O)O)NC(=O)[C@@H]2CCCN2C(=O)CN(C)C(=O)[C@H](Cc2ccc(-c3ccc(NC(=O)c4cn(C)c5ccccc45)cc3)cc2)NC(=O)[C@H](Cc2ccc(-c3ccccc3)cc2)NC(=O)[C@H](CN2CCOCC2)NC(=O)CSC[C@@H](C(=O)NCC(N)=O)NC1=O [Example 348] ({CH2CO}-[Ala(morpholin-4-yl)][Bip][X10][Sar]PD[dR]VPVRLCG-NH2; thioether N-13),50 to 200
8,CC[C@H](C)[C@@H]1NC(=O)[C@@H](CCCNC(=N)N)NC(=O)[C@H](CC(=O)O)NC(=O)[C@H](Cc2cnc[nH]2)NC(=O)CN(C)C(=O)[C@H](Cc2ccc(-c3ccc(NC(=O)c4cccc(-c5ccccc5)c4)cc3)cc2)NC(=O)[C@H](Cc2ccc(-c3ccccc3)cc2)NC(=O)[C@H](CC2CCCCC2)NC(=O)CSC[C@@H](C(=O)NCC(N)=O)NC(=O)[C@H](CC(C)C)NC(=O)[C@H](Cc2cnc[nH]2)NC(=O)[C@H](C(C)C)NC(=O)[C@@H]2CCCN2C1=O [Example 349] ({CH2CO}-[Cha][Bip][Bip(4'-NH)](Benzoyl(3-Ph))[Sar]HD[dR]IPVHLCG-NH2; thioether N-13),200 to 2000
9,CC[C@H](C)[C@@H]1NC(=O)[C@@H]2CCCN2C(=O)[C@H]([C@@H](C)CC)NC(=O)[C@@H](CCCNC(=N)N)NC(=O)[C@H](CC(=O)O)NC(=O)[C@H](Cc2ccccc2)NC(=O)CN(C)C(=O)[C@H](Cc2ccc(-c3ccc(NC(=O)c4cccc(C(=O)O)c4)cc3)cc2)NC(=O)[C@H](Cc2ccc(-c3ccc(C(=O)O)cc3)cc2)NC(=O)[C@H](C(C)(C)C)NC(=O)CSC[C@@H](C(=O)NCC(N)=O)NC(=O)[C@H](CC(C)C)NC(=O)[C@H](Cc2cnc[nH]2)NC1=O [Example 351] ({CH2CO}-[Tle][Bip(4'-COOH)][Bip(4'-(3-HOOC-benzamido))][Sar]FD[dR]IPIHLCG-NH2; thioether N-13),< 50
10,CC[C@H](C)[C@@H]1NC(=O)[C@@H]2CCCN2C(=O)[C@H]([C@@H](C)CC)NC(=O)[C@@H](CCCNC(=N)N)NC(=O)[C@H](CC(=O)O)NC(=O)[C@H](Cc2ccccc2)NC(=O)CN(C)C(=O)[C@H](Cc2ccc(-c3ccc(NC(=O)c4cccc(OCC(=O)O)c4)cc3)cc2)NC(=O)[C@H](Cc2ccc(-c3ccc(C(=O)O)cc3)cc2)NC(=O)[C@H](C(C)(C)C)NC(=O)CSC[C@@H](C(=O)NCC(N)=O)NC(=O)[C@H](CC(C)C)NC(=O)[C@H](Cc2cnc[nH]2)NC1=O [Example 352] ({CH2CO}-[Tle][Bip(4'-COOH)][Bip(4'-NH)](Benzoyl(3-OCH2COOH))[Sar]FD[dR]IPIHLCG-NH2; thioether N-13),< 50
11,CC[C@H](C)[C@@H]1NC(=O)[C@@H]2CCCN2C(=O)[C@H]([C@@H](C)CC)NC(=O)[C@@H](CCCNC(=N)N)NC(=O)[C@H](CC(=O)O)NC(=O)[C@H](Cc2ccccc2)NC(=O)CN(C)C(=O)[C@H](Cc2ccc(-c3ccc(NC(=O)c4csc(-c5ccncc5)n4)cc3)cc2)NC(=O)[C@H](Cc2ccc(-c3ccc(C(=O)O)cc3)cc2)NC(=O)[C@H](C(C)(C)C)NC(=O)CSC[C@@H](C(=O)NCC(N)=O)NC(=O)[C@H](CC(C)C)NC(=O)[C@H](Cc2cnc[nH]2)NC1=O [Example 353] ({CH2CO}-[Tle][Bip(4'-COOH)][Bip(4'-NH)](X20)[Sar]FD[dR]IPIHLCG-NH2; thioether N-13),< 50
12,CC[C@H](C)[C@@H]1NC(=O)[C@@H](CCCNC(=N)N)NC(=O)[C@H](CC(=O)O)NC(=O)[C@H](Cc2cnc[nH]2)NC(=O)CN(C)C(=O)[C@H](Cc2ccc(-c3ccc(NC(=O)c4ccccc4Oc4cccc(C(=O)O)c4)cc3)cc2)NC(=O)[C@H](Cc2ccc(-c3ccccc3)cc2)NC(=O)[C@H](CC2CCCCC2)NC(=O)CSC[C@@H](C(=O)NCC(N)=O)NC(=O)[C@H](CC(C)C)NC(=O)[C@H](Cc2cnc[nH]2)NC(=O)[C@H](C(C)C)NC(=O)[C@@H]2CCCN2C1=O [Example 354] ({CH2CO}-[Cha][Bip][Bip(4'-NH)](X3)[Sar]HD[dR]IPVHLCG-NH2; thioether N-13),50 to 200

# From patent publication US20250145665A1, “MACROCYCLIC PEPTIDES USEFUL AS MODULATORS OF TNF ALPHA” (Bristol-Myers Squibb Company, priority 2023, published 2025)
